Values after ≈ are worked out from the molar mass of the structure shown. Where two headings read alike, the source gives them in different places.
Assay: Equilibrium solubility of Plinabulin in propylene glycol-D5W diluents (HPLC)
Format: physicochemical
Settings: for Control Group - Absolute Ethanol Test Concentration: 25° C.
Protocol: Corresponding propylene glycol-D5W injections were prepared. The preparation process was as follows: • Diluent 1 (corresponding to a dilution ratio of 1:20). Weigh about 6 g of propylene glycol, place it in a beaker, add 200 ml of D5W injection, and mix well. • Diluent 2 (corresponding to a dilution ratio of 1:30). Weigh about 4 g of propylene glycol, place it in a beaker, add 200 ml of D5W injection, and mix well. • Diluent 3 (corresponding to a dilution ratio of 1:50): Weigh about 2.4 g of propylene glycol, place it in a beaker, add 200 ml of D5W injection, and mix well.
Acceptance criteria: The concentration of Plinabulin in each solution was determined until there was no significant difference between two consecutive determinations, i.e., equilibrium solubility.
Test solutions were taken at different time points, filtered through a 0.45 μm glass fiber membrane, and injected into the high-performance liquid chromatography system. The equilibrium solubility of Plinabulin in solutions with different ratios at various time points was calculated by the external standard method.

SMILES: CC(C)(C)c1[nH]cnc1/C=c1\[nH]c(=O)/c(=C/c2ccccc2)[nH]c1=O [Plinabulin, (3Z,6Z)-3-[(5-tert-butyl-1H-imidazol-4-yl)methylene]-6-(phenylmethylene)-2,5-piperazinedione]
- Control Group - Absolute Ethanol Test Concentration (Test Sample 1 (49.5 h), Diluent 1 (about 6 g propylene glycol + 200 ml D5W, 1:20), 100 rpm): 0.152 µg/mL
- Control Group - Absolute Ethanol Test Concentration (Test Sample 2 (48.5 h), Diluent 2 (about 4 g propylene glycol + 200 ml D5W, 1:30), 100 rpm): 0.125 µg/mL
- Control Group - Absolute Ethanol Test Concentration (Test Sample 3 (49 h), Diluent 3 (about 2.4 g propylene glycol + 200 ml D5W, 1:50), 100 rpm): 0.113 µg/mL
- solubility thermodynamic at 49.5 h (propylene glycol-D5W diluent, 25 °C, saline or isotonic, thermodynamic from solid, Test Sample 1 (1:20) dilution level, 49.5 h, read-out: Test Concentration (equilibrium solubility)): 0.152 µg/mL (≈ 0.452 µM)
- solubility thermodynamic at 72 h (propylene glycol-D5W diluent, 25 °C, saline or isotonic, thermodynamic from solid, Test Sample 1 (1:20) dilution level, 72 h, read-out: Test Concentration (equilibrium solubility)): 0.145 µg/mL (≈ 0.431 µM)
- solubility thermodynamic at 94 h (propylene glycol-D5W diluent, 25 °C, saline or isotonic, thermodynamic from solid, Test Sample 1 (1:20) dilution level, 94 h, read-out: Test Concentration (equilibrium solubility)): 0.143 µg/mL (≈ 0.425 µM)
- solubility thermodynamic at 49.5 h (propylene glycol-D5W diluent, 25 °C, saline or isotonic, thermodynamic from solid, Test Sample 1 (49.5 h), Diluent 1 (about 6 g propylene glycol + 200 ml D5W, 1:20), 100 rpm, read-out: Control Group - Diluent Test Concentration): 0.155 µg/mL
- solubility thermodynamic at 48.5 h (propylene glycol-D5W diluent, 25 °C, saline or isotonic, thermodynamic from solid, Test Sample 2 (1:30) dilution level, 48.5 h, read-out: Test Concentration (equilibrium solubility)): 0.125 µg/mL (≈ 0.372 µM)
- solubility thermodynamic at 73 h (propylene glycol-D5W diluent, 25 °C, saline or isotonic, thermodynamic from solid, Test Sample 2 (1:30) dilution level, 73 h, read-out: Test Concentration (equilibrium solubility)): 0.112 µg/mL (≈ 0.333 µM)
- solubility thermodynamic at 94.5 h (propylene glycol-D5W diluent, 25 °C, saline or isotonic, thermodynamic from solid, Test Sample 2 (1:30) dilution level, 94.5 h, read-out: Test Concentration (equilibrium solubility)): 0.113 µg/mL (≈ 0.336 µM)
- solubility thermodynamic at 48.5 h (propylene glycol-D5W diluent, 25 °C, saline or isotonic, thermodynamic from solid, Test Sample 2 (48.5 h), Diluent 2 (about 4 g propylene glycol + 200 ml D5W, 1:30), 100 rpm, read-out: Control Group - Diluent Test Concentration): 0.13 µg/mL
- solubility thermodynamic at 49 h (propylene glycol-D5W diluent, 25 °C, saline or isotonic, thermodynamic from solid, Test Sample 3 (1:50) dilution level, 49 h, read-out: Test Concentration (equilibrium solubility)): 0.113 µg/mL (≈ 0.336 µM)
- solubility thermodynamic at 73.5 h (propylene glycol-D5W diluent, 25 °C, saline or isotonic, thermodynamic from solid, Test Sample 3 (1:50) dilution level, 73.5 h, read-out: Test Concentration (equilibrium solubility)): 0.095 µg/mL (≈ 0.282 µM)
- solubility thermodynamic at 96 h (propylene glycol-D5W diluent, 25 °C, saline or isotonic, thermodynamic from solid, Test Sample 3 (1:50) dilution level, 96 h, read-out: Test Concentration (equilibrium solubility)): 0.134 µg/mL (≈ 0.398 µM)
- solubility thermodynamic at 120 h (propylene glycol-D5W diluent, 25 °C, saline or isotonic, thermodynamic from solid, Test Sample 3 (1:50) dilution level, 120 h, read-out: Test Concentration (equilibrium solubility)): 0.135 µg/mL (≈ 0.401 µM)
- solubility thermodynamic at 49 h (propylene glycol-D5W diluent, 25 °C, saline or isotonic, thermodynamic from solid, Test Sample 3 (49 h), Diluent 3 (about 2.4 g propylene glycol + 200 ml D5W, 1:50), 100 rpm, read-out: Control Group - Diluent Test Concentration): 0.117 µg/mL

Source: patent US20260130851A1, “PLINABULIN MICELLE COMPOSITION AND PREPARATION METHOD THEREFOR” (priority 2022, published 2026)
